According to ChEMBL document CHEMBL4715706, “Discovery of Benzotriazolo[4,3-d][1,4]diazepines as Orally Active Inhibitors of BET Bromodomains” (ACS Med Chem Lett, 2016):

Experiments:
[1] = biological target: T1, ATPase family AAA domain-containing protein 2 (Homo sapiens, UniProt Q6PL18); assay: Inhibition of His-tagged ATAD2 (unknown origin) using biotinylated acetylated peptide as substrate measured after 20 mins by AlphaLISA assay
T1 sequence (Q6PL18 whole entry): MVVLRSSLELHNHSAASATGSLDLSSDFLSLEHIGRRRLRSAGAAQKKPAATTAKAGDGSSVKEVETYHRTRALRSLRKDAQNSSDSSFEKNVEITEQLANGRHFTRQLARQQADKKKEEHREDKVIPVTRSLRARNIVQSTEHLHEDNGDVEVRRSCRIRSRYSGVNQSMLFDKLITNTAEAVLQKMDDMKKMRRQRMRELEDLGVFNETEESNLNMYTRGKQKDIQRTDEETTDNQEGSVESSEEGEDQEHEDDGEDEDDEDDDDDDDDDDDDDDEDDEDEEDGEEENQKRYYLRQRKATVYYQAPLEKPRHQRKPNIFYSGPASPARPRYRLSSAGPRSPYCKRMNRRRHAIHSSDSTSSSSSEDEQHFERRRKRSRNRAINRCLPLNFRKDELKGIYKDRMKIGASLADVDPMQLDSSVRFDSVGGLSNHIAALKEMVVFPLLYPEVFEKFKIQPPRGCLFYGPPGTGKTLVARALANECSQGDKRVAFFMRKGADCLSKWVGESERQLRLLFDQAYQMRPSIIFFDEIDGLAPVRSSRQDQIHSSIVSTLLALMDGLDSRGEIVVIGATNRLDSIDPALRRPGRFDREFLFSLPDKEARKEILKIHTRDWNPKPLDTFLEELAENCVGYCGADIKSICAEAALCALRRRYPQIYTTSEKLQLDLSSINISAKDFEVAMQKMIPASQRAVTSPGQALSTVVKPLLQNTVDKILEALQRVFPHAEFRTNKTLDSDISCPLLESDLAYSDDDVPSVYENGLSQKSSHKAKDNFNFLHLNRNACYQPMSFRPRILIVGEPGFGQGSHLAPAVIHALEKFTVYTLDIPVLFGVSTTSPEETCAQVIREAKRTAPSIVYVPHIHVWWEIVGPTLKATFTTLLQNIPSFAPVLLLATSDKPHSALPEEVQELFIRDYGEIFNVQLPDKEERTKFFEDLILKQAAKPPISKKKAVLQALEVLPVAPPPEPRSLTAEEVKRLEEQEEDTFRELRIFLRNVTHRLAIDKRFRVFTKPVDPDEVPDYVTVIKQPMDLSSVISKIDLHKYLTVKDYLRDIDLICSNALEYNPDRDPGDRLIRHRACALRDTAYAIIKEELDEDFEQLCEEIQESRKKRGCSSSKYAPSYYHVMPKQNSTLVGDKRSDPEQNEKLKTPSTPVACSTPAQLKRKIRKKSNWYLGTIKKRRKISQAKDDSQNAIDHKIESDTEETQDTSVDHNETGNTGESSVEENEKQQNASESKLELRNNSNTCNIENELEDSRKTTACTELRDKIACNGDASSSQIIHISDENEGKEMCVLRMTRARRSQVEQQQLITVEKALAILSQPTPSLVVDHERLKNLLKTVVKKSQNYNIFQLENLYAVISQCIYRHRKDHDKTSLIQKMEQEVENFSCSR

[2] = Intrinsic clearance in dog liver microsomes
[3] = Clearance in rat at 1 mg/kg, iv relative to liver blood flow; format: ADME, organism-based; conditions: in vivo

Cc1nnc2n1-c1ccc(-c3ccc(N)nc3)cc1N(c1ccc(Cl)cc1)C[C@H]2C
IC50 [1]: > 15 µM
microsomal CLint [2]: 19 µL/min/mg
CL [3]: 90%
